# Results from patent US20150335548A1, “Oral Care Composition” (COLGATE-PALMOLIVE COMPANY, priority 2012, published 2015).
# Entries after “also recorded” stand apart in the source; their conditions may differ.
# Columns and labels:
# [1] = system: A. viscosus; assay: Growth inhibition of A. viscosus (optical density over time); format: cell-based; conditions: for optical density of A. viscosus culture, 0 h / optical density of A. viscosus culture, 4 h / optical density of A. viscosus culture, 22 h / optical density of A. viscosus culture, 24 h: 10% concentration in a mouth rinse
# Experimental: The effects of 1-decyl-3-methylimidazolium (DMIM) chloride on bacterial growth were investigated in vitro. DMIM chloride was incorporated into a prototype mouth rinse as illustrated in Table 17. […] The growth inhibition was measured as a change in optical density over time.
# The antibacterial effects of various ionic liquids were determined according to the protocol described in Example 12.
# [2] = system: 3-day old biofilm of the artificial mouth consortium of bacteria (A. naeslundii, S. oralis, V. parvula, L. casei, F. nucleatum) and S. mutans; assay: In vitro biofilm removal, 3-day old biofilm (protocol of Example 2); format: cell-based
# Experimental: The 3-day old biofilm was grown on a 24 well plate using the artificial mouth consortium of bacteria (A. naeslundii, S. oralis, V. parvula, L. casei, F. nucleatum) and S. mutans. To generate the biofilm, plates were inoculated with saliva overnight to form a pellicle. The consortium of bacteria (1 mL) at an OD of ˜0.2 was added to each well. The bacterial media (Tryptic Soy Broth with 6% sucrose) was changed after 48 hours. The 3-day old biofilm was treated with the prototype formulation (500 μL) for 15 minutes on a plate shaker at 300 rpm. After incubation, the supernatant was discarded. The optical density of each well was measured and the percentage reduction in optical density relative to the control (water) was calculated to determine the effect of the prototype formulation on biofilm removal. […]
# Water, untreated biofilm, commercially available mouthwash formulations with CPC (Cetyl pyridinium chloride) and a mouthwash containing five enzymes for combatting biofilm acted as […] for the experiment.
# [3] = Teeth whitening, in-vitro removal of tooth stains (one hour soak); set-up: species or system human; conditions: 1M in prototype mouth wash of Table 7
# Experimental: The method of determining the effects of imidazolium-based ionic liquids on teeth whitening was carried out as follows:
# The initial L*a*b* measurements of dried artificially stained human teeth were captured. The teeth were then soaked in 1 ml of sample solution for one hour, and sample was replenished at 30 minutes. After treatment, teeth were soaked in DI water for approximately 10 minutes. The teeth were left to dry at least overnight, and final L*a*b* measurements were then taken. (L*a*b* refers to stain score in accordance with the Commission International de L'Eclairage Laboratory (CIELAB) color scale. L* (lightness-darkness scale), a* (red-green chroma) and b* (yellow-blue chroma)).
# The whitening efficacy was determined as follows:
# All the EMIM-based compounds were evaluated at 1M concentration in a prototype mouth wash formulation as illustrated in Table 7.
# [4] = system: dental plaque; assay: Dissolution of plaque; conditions: water-insoluble plaque vortex mixed with ionic liquid at room temperature, centrifuged at 13,000 g
# Experimental: Dental plaque samples were obtained from subjects and treated with water to remove any water soluble actives. The samples were centrifuged at 13,000 g and the supernatant was collected and discarded. The remaining plaque that was insoluble in water was used to evaluate the plaque solubilizing potential of the ionic liquids.
# Ionic liquids were added to the plaque sample, and the plaque sample was vortex mixed at room temperature. To ensure that the plaque was not simply suspended in the ionic liquid, the plaque containing vial with the ionic liquid was subsequently centrifuged at 13,000 g.
# Plaque may form a suspension when mixed with water and that, on centrifugation, it is visible as an insoluble pellet.
# [5] = system: A. viscosus; assay: Short Interval Kill Test (SIKT); format: cell-based; conditions: 0.3, 0.6 and 1 wt % in the prototype mouth rinse
# Excerpt: SIKT determines the kill effect of a test article at a predetermined exposure time. […] The reaction was neutralized after 30 seconds by adding a neutralizing broth. The reaction mixture was further diluted and plated on MCA (Microbial Count Agar) plates for viable bacterial count.
# [6] = EMIM-based ionic liquids, […] in base prototype mouth rinse of Table 1, 3-day old biofilm
compound,measurement,setting,value
"CCOS(=O)(=O)[O-].CCn1cc[n+](C)c1 [EMIM Ethyl SO4, EMIM ethyl sulfate]","optical density of A. viscosus culture, 0 h",[1],0.1482
same,"optical density of A. viscosus culture, 4 h",[1],0.2499
same,"optical density of A. viscosus culture, 22 h",[1],0.7514
same,"optical density of A. viscosus culture, 24 h",[1],0.7965
same,Percent Biofilm Removed,[2]; [6],48.1%
same,Percent Removal of a 3-day Oral Biofilm,"[2]; […] ionic liquid in base prototype mouth rinse of Table 1, 15 minutes, relative to water control",48.1%
same,ΔE,[3],4.41
same,ΔL,[3],3.40
same,ΔW,[3],−2.99
"CCn1cc[n+](C)c1.[Br-] [EMIM Br, 1-ethyl-3-methylimidazolium bromide]","optical density of A. viscosus culture, 0 h",[1],0.1482
same,"optical density of A. viscosus culture, 4 h",[1],0.2216
same,"optical density of A. viscosus culture, 22 h",[1],0.7598
same,"optical density of A. viscosus culture, 24 h",[1],0.8533
same,"plaque dissolution (size of plaque pellet, visual)",[4],size of the plaque pellet is reduced
same,Percent Biofilm Removed,[2]; [6],48.6%
"CCCCCCCCCCn1cc[n+](C)c1.[Cl-] [DMIM Cl, 1-decyl-3-methylimidazolium chloride]","growth inhibition of A. viscosus, in words",[1]; formulated at 0.312 wt %,growth inhibition of A. viscosus is maintained
same,"growth inhibition of A. viscosus, in words",[1]; formulated at 1 wt % in prototype mouth rinse of Table 17,greater growth inhibition of A. viscosus than a 0.075 wt % CPC mouthwash
same,time to kill A. viscosus,[5],≤ 30 s
same,"biofilm removal, comparison in words","[2]; 3-day old biofilm, listed as DMIM chloride",significantly more effective in removing biofilm than EMIM chloride and BMIM chloride; also recorded: most effective in removing biofilm
same,Percent Biofilm Removed,"[2]; other ionic liquids, 3-day old biofilm",57.3%
